US20220062218A1, “COMPOSITIONS AND METHODS FOR TREATING DIABETES” (ENZYCHEM LIFESCIENCES, priority 2019, published 2022)
Entries after “also recorded” stand apart in the source; their conditions may differ.

Legend:
Assay type in all cases: cell-based, rat
INS-1 cells [1] = test: High glucose (HG)-induced intracellular ROS generation in INS-1 cells, flow cytometry with DCFH-DA; conditions: pre-treated with 50 or 100 μg/mL of PLAG for 1 h, then 30 mM HG for 48 h
Procedure: Intracellular ROS generation also analyzed by flow cytometry using DCFH-DA dye. ROS generation was determined by analyzing changes in fluorescence intensity. INS-1 cells were pre-treated with 50 or 100 μg/mL of PLAG for 1 h, and then treated with 30 mM of HG for 48h. […] PLAG promotes GLUT2 endocytosis in HG-treated INS-1 cells (FIG. 10)
(§1) INS-1 rat insulinoma pancreas beta cells were cultured in RPMI-1640 medium (Welgene, Gyeongsangbuk-do, Republic of Korea) containing 10% fetal bovine serum (Tissue Culture Biologicals, Long Beach, Calif., USA), 50 μM β-mercaptoethanol, 100 units/mL penicillin, and 100 μg/mL streptomycin (Antibiotic-Antimycotic Solution, Welgene). The cells were grown in a humidified atmosphere with 5% CO2 at 37° C. Chemicals and reagents
(§2) Cells were collected by trypsinization and washed with ice-cold PBS. For cell apoptosis analyses, INS-1 cells were incubated with annexin V (BD Biosciences, Franklin Lakes, N.J., USA) for 10 min at room temperature, and stained with 7-AAD (BD Biosciences). For intracellular reactive oxygen species (ROS) analyses, cells were incubated with 2 μM of DCFH-DA (2′,7′-dichlorodihydrofluorescein diacetate, Invitrogen, Carlsbad, Calif., USA) for 30 min at 37° C. The analysis was performed using a BD FACS Verse flow cytometer (BD Biosciences).

[2] = tested on: apoptosis-related proteins BCL-2, BAX, cytochrome c, caspase-3; test: Expression of apoptosis-related proteins (BCL-2, BAX, cytochrome c, caspase-3) by western blotting in STZ-treated cells
Procedure: In addition, to perform a special protein detection test (Western Blotting), cells were lysed by RIPA buffer (LPS Solution, Daejeon, Korea) supplemented with protease and phosphatase inhibitors (Thermo Scientific, Waltham, Mass., USA). Proteins were separated on 12% sodium dodecyl sulfate-polyacrylamide gels and transferred to polyvinylidene difluoride membranes (EMD Millipore, Darmstadt, Germany). The membranes were blocked with 5% BSA for 1 h and incubated with primary antibodies to GLUT2 (bs-0351r, Bioss, Woburn, Mass., USA), RAC1 (03589, EMD Millipore), BAX (B51030, Bioworld Tech, St. Louis Park, Minn., USA), BCL-2 (B51031, Bioworld), Cytochrome c (#4272, Cell Signaling Technology, Danvers, Mass., USA), Caspase-3 (#9662, Cell Signaling Technology), and Na+-K+ ATPase (#3010S, Cell Signaling Technology). After three washes in PBST, membranes were incubated with HRP-conjugated secondary antibodies (Enzo Life Sciences, dilution 1:5,000) for 1 h at room temperature. Protein bands were detected using ECL reagent (Thermo Scientific) and then visualized on films. Expression of apoptosis-related proteins like Bcl-2, Bax, cytochrome c, caspase-3 was analyzed by western blotting, Bax/Bcl-2 ratio is represented by a bar graph (FIG. 2-C). Data are presented as mean ±SD (***P<0.001 vs. control, #P<0.05, ##P<0.005 vs. STZ).

[3] = tested on: clathrin- or caveolin-silenced INS-1 cells; test: Cell apoptosis and ROS generation in clathrin or caveolin siRNA-transfected cells treated with STZ
Procedure: GLUT2-silenced cells were prepared to clarify the role of GLUT2 in STZ-treated cells. INS-1 cells were transfected with GLUT2 siRNA to determine whether GLUT2 expression is related to STZ-induced cell apoptosis and ROS generation.
Apoptosis of pancreatic beta cells, intracellular ROS generation and glucose intake was analyzed by flow cytometry using GLUT2 siRNA transfected cells (FIGS. 6-A to 6-C). The effect of PLAG on (D) cell apoptosis and (E) ROS generation in Endocytosis-related protein, clathrin or caveolin siRNA-transfected cells was analyzed (FIG. 6D and 6-E). Data are presented as mean ±SD. **P<0.005, ***P<0.001 vs. control, ##P<0.005, #IIIIP<0.001 vs. STZ group. N.S.: No significance. Transfection with siRNAs was performed using the HiPerFect reagent (Qiagen, Hilden, Germany), according to the manufacturer's protocol. Specific siRNAs directed against GLUT2, clathrin, and caveolin were obtained from Santa Cruz Biotechnology (Dallas, Tex., USA).

INS-1 cells [4] = test: High glucose (HG)-induced cell apoptosis in INS-1 cells, flow cytometry; conditions: pre-treated with 50 or 100 μg/mL of PLAG for 1 h, then 30 mM HG for 48 h
Procedure: Effect of PLAG on pancreatic beta cell protection was investigated after HG-treatment. HG-induced cell apoptosis was analyzed using flow cytometry. INS-1 cells were pre-treated with 50 or 100 μg/mL of PLAG for lh, and then treated with 30 mM of HG for 48h. When INS-1 cells were maintained in a high glucose conditions, there was a significant increase in cell apoptosis compared to control cells.
as §1
PLAG was obtained from Enzychem Lifesciences (Seoul, Republic of Korea). D-glucose was purchased from Sigma-Aldrich (St. Louis, Mo., USA). PLAG was dissolved in ethanol and the final working concentration was 0.1% (v/v). D-glucose was dissolved in cell culture medium.
Cells were collected by trypsinization and washed with ice-cold PBS. For cell apoptosis analyses, INS-1 cells were incubated with annexin V (BD Biosciences, Franklin Lakes, N.J., USA) for 10 min at room temperature, and stained with 7-AAD (BD Biosciences). […]

INS-1 cells [5] = test: Intracellular ROS generation in STZ-treated cells, flow cytometry with DCFH-DA and immunofluorescence
Procedure: For intracellular ROS analyses after administering PLAG, cells were incubated with 2 μM of DCFH-DA (2′,7′-dichlorodihydrofluorescein diacetate, Invitrogen, Carlsbad, CA, USA) for 30 min at 37 ° C. The analysis was performed using a BD FACS Verse flow cytometer (BD Biosciences) (FIGS. 4A and 4B), and expression of reactive oxygen species (ROS) was observed by immunofluorescence assay (FIG. 4C). We further examined cell apoptosis in cells co-treated with three types of ROS inhibitor (Apocynin, MitoTEMPO, NAC) to examine the association of intracellular ROS generation with pancreatic beta cell apoptosis. […] Apocynin (NADPH oxidase inhibitor), MitoTEMPO (mitochondrial ROS inhibitor), and N-acetyl-L-cysteine (NAC, an overall ROS inhibitor) were used as the ROS inhibitor. Data are presented as mean ±SD(* P<0.05, ** P<0.005, *** P <0.001 vs control, #P<0.05, ## P<0.005 vs STZ).
After treatment with PLAG and PLH(1-palmitoyl-2-linoleoyl-3-hydroxyl-rac-glycerol), apoptosis, intracellular ROS generation and glucose uptake were analyzed by flow cytometry (FIG. 7-B to 7-E). In addition, expression of GLUT2 in membrane fractions was analyzed by Western blotting (FIG.7-F). Data are presented as mean ±SD. ***P<0.001 vs. control, #P<0.05, ##P<0.005 vs. STZ. N.S.: No significance.
as §2

`CCCCC/C=C\C/C=C\CCCCCCCC(=O)OC(COC(C)=O)COC(=O)CCCCCCCCCCCCCCC` (racemic) [PLAG, 1-palmitoyl-2-linoleoyl-3-acetyl-rac-glycerol] was tested, and the “HG-induced intracellular ROS generation” value (INS-1 cells [1]) was “dose-dependently decreased”, the “expression of anti-apoptotic protein BCL-2” value ([2]; decreased by STZ) was “recovered by PLAG” and the “expression of apoptosis-related proteins BAX, cytochrome c, and caspase-3” value ([2]; increased by STZ) was “attenuated by PLAG addition”. The “apoptosis or ROS generation in clathrin- or caveolin-silenced cells” value [3] was “did not influence apoptosis or ROS generation”, the HG-induced cell apoptosis (INS-1 cells [4]) was “a decreased rate of apoptosis was observed; also recorded: dose-dependently decreased” and the “decrease of ROS generation, PLAG vs PLH” value (INS-1 cells [5]; Example 8) was “more effective than PLH”. The “intracellular ROS (dose dependence)” value (INS-1 cells [5]; flow cytometry) was “dose-dependently decreased” and the “intracellular ROS (time course)” value (INS-1 cells [5]; flow cytometry and immunofluorescence) was “attenuated”.
